In US20240246942A1, “KINASE INHIBITORS FOR THE TREATMENT OF NEURODEGENERATIVE DISEASES” (priority 2020, published 2024):

Legend:
[1] = target: T1, panel of 374 wild-type kinases (Homo sapiens, UniProt Q9H792); assay: biochemical; conditions: read-out: % Enzyme Activity (relative to DMSO controls), kinase PEAK1; 5 uM
T1 construct: purchased Reaction Biology Corporation

[2] = target: T2, panel of 374 wild-type kinases (Homo sapiens, UniProt P53779); assay: biochemical; conditions: read-out: % Enzyme Activity (relative to DMSO controls), JNK3; 10 uM
T2 construct: purchased Reaction Biology Corporation
T2 sequence (P53779 whole entry): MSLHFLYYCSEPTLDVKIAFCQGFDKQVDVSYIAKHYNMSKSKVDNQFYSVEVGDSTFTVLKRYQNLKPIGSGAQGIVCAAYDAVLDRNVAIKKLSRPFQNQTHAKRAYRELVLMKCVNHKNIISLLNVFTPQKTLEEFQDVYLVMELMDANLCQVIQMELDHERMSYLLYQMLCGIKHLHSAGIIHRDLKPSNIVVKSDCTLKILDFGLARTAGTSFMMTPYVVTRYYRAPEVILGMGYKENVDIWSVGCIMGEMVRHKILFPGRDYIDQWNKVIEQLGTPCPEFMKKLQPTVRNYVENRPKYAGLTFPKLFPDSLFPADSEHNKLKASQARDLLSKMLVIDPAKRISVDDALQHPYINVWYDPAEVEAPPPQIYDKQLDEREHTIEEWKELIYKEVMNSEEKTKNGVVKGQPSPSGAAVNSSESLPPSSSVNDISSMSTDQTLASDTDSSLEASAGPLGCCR

T1 sequence (Q9H792 whole entry): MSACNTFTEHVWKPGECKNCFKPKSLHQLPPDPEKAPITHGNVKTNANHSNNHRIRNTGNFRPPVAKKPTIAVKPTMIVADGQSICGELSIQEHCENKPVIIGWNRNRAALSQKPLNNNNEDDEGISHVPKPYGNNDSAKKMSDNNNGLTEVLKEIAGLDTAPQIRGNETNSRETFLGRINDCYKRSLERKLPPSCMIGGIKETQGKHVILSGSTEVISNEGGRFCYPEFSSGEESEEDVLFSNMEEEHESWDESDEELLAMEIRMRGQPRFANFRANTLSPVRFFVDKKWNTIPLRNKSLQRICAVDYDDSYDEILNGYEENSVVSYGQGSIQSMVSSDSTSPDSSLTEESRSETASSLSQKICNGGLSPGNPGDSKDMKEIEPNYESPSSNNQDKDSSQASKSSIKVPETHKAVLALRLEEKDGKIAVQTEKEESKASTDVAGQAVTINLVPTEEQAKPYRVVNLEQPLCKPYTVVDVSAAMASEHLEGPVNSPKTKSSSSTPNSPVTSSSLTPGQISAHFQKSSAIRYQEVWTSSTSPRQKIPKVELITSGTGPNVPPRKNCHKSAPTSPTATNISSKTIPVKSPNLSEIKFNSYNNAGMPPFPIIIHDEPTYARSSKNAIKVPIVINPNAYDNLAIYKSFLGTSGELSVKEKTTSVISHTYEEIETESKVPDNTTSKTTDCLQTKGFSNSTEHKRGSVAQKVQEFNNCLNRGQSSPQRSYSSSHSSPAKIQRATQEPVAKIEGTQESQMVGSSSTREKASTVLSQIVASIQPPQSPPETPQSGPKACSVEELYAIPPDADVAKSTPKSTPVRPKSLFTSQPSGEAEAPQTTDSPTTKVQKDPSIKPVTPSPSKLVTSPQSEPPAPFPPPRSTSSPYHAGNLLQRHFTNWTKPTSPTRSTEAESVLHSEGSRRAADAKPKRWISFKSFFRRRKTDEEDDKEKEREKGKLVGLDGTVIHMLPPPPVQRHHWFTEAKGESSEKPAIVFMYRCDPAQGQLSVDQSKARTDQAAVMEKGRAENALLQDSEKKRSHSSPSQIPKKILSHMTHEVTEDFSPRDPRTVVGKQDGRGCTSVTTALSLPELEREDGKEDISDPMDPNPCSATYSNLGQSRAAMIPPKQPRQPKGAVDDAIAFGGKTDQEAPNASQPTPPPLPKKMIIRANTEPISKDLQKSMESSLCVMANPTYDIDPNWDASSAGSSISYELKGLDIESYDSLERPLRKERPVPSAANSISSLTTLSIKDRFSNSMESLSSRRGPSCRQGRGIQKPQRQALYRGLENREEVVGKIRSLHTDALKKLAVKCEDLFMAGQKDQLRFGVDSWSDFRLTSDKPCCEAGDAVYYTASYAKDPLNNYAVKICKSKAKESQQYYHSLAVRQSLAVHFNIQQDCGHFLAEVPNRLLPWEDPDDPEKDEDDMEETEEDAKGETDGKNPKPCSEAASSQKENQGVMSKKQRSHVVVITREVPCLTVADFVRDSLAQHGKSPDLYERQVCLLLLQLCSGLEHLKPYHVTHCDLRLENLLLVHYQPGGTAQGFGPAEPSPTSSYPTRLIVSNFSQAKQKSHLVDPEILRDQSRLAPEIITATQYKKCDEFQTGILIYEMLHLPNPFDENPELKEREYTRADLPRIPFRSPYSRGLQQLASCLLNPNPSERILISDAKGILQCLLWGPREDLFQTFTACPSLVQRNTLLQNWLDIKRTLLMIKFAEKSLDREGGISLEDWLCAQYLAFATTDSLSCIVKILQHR

`O=C(Nc1cnn(-c2csc(C(=O)NC3COC3)c2)c1)Nc1ccccc1Cl` [Compound 17, 4-(4-(3-(2-chlorophenyl)ureido)-1H-pyrazol-1-yl)-N-(oxetan-3-yl)thiophene-2-carboxamide] gave a remaining activity at 5 µM [1] of 91.4%.
`Cc1sc(C(=O)NC2COC2)cc1-n1cc(NC(=O)Nc2c(F)cccc2Cl)cn1` [Compound 27, 4-(4-(3-(2-chloro-6-fluorophenyl)ureido)-1H-pyrazol-1-yl)-5-methyl-N-(oxetan-3-yl)thiophene-2-carboxamide] showed a remaining activity at 10 µM [2] of 10.5%.
